Reference: ChEMBL document CHEMBL1201862, “PubChem BioAssay data set” (2004)
Active and inactive are the calls of the source.

Legend:
[1] = target: Prothrombin (Bos taurus, UniProt P00735); assay: thrombin protease inhibitors – biochemical, fluorescence polarization, uHTS hits, dose response (AID 602369); assay type: functional
[2] = target: T1, G-protein coupled receptor 35 (Homo sapiens, UniProt Q9HC97); assay: SAR Analysis for the identification of Selective Antagonists of ERK1/2 Activity in GPR35-Overexpressing U2OS Cells. [Related pubchem assays: 2079, 2058 ]; assay type: functional, cell-based
T1 sequence (Q9HC97 whole entry): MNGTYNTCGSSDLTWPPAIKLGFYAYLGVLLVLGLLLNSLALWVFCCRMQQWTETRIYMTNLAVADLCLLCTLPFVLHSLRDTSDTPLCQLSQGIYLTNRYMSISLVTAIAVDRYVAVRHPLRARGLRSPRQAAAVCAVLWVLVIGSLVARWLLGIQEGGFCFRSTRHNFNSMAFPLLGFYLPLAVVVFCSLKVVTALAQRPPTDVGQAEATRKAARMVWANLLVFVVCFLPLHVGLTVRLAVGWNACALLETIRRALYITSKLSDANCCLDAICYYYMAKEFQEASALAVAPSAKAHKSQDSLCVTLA

[3] = target: T2, Tyrosine-protein phosphatase non-receptor type 22 (Homo sapiens, UniProt Q9Y2R2); assay: inhibition of lymphoid tyrosine phosphatase LYP – biochemical, pCAP fluorogenic substrate, fluorescence, set 3, SAR follow-up (AID 449727); assay type: functional
T2 sequence (Q9Y2R2 whole entry): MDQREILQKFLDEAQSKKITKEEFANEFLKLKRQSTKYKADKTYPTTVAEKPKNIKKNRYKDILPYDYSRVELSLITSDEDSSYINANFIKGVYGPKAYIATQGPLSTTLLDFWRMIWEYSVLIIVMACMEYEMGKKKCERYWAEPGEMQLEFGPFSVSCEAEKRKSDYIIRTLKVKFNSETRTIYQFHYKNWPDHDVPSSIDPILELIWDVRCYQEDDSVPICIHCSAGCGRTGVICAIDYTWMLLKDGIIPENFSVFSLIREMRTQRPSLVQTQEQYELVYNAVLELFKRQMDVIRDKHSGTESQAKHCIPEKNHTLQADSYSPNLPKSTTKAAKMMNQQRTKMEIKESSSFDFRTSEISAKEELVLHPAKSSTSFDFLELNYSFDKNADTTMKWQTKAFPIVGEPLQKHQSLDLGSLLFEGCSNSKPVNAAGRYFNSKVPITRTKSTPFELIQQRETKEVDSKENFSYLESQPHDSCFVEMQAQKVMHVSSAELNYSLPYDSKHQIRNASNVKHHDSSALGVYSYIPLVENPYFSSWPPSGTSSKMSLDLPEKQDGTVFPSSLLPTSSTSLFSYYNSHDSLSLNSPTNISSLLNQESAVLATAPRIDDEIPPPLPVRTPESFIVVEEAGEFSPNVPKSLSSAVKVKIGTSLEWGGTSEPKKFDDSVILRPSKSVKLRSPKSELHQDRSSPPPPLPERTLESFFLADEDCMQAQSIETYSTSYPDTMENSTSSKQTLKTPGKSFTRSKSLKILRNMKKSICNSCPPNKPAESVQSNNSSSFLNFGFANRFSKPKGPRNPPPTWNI

[4] = target: Tyrosine-protein phosphatase non-receptor type 12 (Homo sapiens, UniProt Q05209); assay: SAR Selectivity Analysis of small molecule inhibitors of PEST using pCAP in a fluorescence assay. [Related pubchem assays (depositor defined):AID1779, AID1784, AID2135]; assay type: functional
Sequence of Tyrosine-protein phosphatase non-receptor type 12 (Q05209 whole entry): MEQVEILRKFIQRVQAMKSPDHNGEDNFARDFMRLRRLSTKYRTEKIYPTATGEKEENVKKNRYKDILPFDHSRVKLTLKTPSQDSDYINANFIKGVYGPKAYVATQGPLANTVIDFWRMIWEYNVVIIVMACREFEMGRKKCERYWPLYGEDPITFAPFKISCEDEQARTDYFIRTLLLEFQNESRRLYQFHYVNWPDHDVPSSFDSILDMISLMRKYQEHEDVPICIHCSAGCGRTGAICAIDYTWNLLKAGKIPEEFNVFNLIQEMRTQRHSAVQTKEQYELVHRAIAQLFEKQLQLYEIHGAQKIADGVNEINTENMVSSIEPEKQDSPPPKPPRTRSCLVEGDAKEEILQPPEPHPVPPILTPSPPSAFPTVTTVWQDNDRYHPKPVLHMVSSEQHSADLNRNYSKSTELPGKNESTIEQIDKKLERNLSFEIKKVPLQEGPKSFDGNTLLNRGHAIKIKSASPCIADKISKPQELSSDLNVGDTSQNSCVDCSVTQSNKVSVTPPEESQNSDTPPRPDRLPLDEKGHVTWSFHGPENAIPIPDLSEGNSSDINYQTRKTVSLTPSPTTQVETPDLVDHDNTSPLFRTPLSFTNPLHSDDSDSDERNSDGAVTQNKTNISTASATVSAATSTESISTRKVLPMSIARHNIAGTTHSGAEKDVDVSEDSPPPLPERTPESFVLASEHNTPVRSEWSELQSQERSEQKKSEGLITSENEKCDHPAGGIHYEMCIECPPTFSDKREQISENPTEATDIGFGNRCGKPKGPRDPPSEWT

[5] = target: 26S proteasome non-ATPase regulatory subunit 14 (Homo sapiens, UniProt O00487); assay: inhibition of proteasome subunit RPN11 – biochemical, fluorescence polarization, uHTS hits, confirmation (AID 602368); assay type: functional
Sequence of 26S proteasome non-ATPase regulatory subunit 14 (O00487 whole entry): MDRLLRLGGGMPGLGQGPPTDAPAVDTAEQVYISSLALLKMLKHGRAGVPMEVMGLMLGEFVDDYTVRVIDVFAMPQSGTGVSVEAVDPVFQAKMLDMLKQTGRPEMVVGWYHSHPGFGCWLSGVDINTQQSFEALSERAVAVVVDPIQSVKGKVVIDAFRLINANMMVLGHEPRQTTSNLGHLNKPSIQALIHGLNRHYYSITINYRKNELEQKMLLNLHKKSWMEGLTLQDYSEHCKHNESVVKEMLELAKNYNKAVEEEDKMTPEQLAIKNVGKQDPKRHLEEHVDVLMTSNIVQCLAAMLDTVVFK

[6] = target: T2, Tyrosine-protein phosphatase non-receptor type 22; assay: SAR LYP1 Fluorescent Assay using OMFP substrate for In Vitro dose response studies - Set 3. [Related pubchem assays (depositor defined):AID1779, AID1784, AID2140, AID2686]; assay type: functional
[7] = target: 72 kDa type IV collagenase (Homo sapiens, UniProt P08253); assay: Dose Response validation of uHTS RPN11 inhibitor hits using a MMP-2 Fluorescence assay.; assay type: functional
Sequence of 72 kDa type IV collagenase (P08253 whole entry): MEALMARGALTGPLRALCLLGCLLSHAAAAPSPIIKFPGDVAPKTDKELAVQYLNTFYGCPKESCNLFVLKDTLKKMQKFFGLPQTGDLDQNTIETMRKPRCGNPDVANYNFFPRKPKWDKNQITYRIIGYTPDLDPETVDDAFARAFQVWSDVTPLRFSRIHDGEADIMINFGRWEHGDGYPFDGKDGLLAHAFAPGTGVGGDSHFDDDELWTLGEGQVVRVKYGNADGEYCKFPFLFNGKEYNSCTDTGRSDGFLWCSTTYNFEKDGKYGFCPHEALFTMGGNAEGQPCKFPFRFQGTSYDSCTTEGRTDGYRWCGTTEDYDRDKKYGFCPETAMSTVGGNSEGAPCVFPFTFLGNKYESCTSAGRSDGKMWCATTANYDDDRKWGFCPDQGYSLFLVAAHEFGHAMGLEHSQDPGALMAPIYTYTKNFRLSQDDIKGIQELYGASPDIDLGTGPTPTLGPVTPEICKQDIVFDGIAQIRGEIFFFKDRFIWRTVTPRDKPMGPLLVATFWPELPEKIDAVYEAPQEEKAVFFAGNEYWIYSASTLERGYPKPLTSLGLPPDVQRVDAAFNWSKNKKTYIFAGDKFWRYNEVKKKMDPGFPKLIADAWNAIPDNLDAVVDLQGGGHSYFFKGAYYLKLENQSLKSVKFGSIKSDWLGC

[8] = target: T1, G-protein coupled receptor 35; assay: inhibition of zaprinast-stimulated GPR35 beta-arrestin translocation – imaging, U2OS, beta-arrestin-GFP, zaprinast agonist, primary screen (AID 2058); assay type: functional;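 further: antagonist potency meaning inhibition of agonist-induced arrestin redistribution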
[9] = target: T3, Tyrosine-protein phosphatase non-receptor type 7 (Homo sapiens, UniProt P35236); assay: inhibition of hematopoietic tyrosine phosphatase HePTP – biochemical, set 2, SAR follow-up (AID 449736); assay type: functional
T3 sequence (P35236 whole entry): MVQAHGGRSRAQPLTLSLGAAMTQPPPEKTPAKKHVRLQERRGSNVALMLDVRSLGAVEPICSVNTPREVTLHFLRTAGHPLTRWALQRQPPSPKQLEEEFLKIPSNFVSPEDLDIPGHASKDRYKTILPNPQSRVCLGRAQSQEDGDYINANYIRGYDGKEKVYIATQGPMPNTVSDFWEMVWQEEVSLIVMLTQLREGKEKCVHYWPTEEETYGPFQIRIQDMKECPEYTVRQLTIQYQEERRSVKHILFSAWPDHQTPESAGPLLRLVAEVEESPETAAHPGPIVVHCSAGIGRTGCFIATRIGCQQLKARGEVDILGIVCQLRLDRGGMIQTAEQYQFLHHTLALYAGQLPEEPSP

[10] = target: G-protein coupled receptor 55 (Homo sapiens, UniProt Q9Y2T6); assay: blockers of GPR55 signalling, imaged – imaging, image-based, counter-screen for GPR35 antagonist project, SAR follow-up (AID 2397); assay type: functional
[11] = target: Lysine-specific demethylase 4C (Homo sapiens, UniProt Q9H3R0); assay: inhibition of JMJD2C H3K9me3 demethylation – biochemical, DELFIA europium, cherry-picked samples, dose response (AID 488835); assay type: functional
Sequence of Lysine-specific demethylase 4C (Q9H3R0 whole entry): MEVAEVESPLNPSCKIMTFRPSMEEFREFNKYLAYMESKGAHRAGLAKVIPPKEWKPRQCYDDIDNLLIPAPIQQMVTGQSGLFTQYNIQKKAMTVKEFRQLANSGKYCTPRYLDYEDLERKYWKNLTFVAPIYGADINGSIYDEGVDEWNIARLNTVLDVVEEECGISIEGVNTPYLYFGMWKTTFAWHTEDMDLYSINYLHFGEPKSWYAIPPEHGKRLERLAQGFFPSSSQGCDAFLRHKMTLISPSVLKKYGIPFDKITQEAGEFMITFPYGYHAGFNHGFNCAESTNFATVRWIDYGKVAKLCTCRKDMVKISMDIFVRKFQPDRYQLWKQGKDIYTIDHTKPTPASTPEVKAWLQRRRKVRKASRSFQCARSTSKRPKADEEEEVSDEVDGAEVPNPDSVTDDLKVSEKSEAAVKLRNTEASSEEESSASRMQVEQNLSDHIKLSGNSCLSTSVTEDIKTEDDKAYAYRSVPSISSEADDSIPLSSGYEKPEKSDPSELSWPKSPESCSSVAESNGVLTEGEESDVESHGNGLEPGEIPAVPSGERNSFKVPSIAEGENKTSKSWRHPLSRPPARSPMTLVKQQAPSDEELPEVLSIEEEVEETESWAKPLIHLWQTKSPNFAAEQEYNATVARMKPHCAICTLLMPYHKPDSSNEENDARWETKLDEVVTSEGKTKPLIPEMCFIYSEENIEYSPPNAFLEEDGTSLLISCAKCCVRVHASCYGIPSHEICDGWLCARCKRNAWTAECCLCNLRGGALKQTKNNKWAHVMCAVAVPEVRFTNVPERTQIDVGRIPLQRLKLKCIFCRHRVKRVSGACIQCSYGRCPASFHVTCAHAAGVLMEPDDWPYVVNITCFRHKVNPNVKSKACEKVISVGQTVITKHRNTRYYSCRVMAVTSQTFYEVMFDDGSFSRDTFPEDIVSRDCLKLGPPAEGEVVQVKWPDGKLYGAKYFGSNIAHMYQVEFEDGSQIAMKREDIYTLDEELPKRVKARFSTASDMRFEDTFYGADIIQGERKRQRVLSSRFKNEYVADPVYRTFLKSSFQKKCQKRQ

[12] = target: Bcl-2-like protein 1 (Homo sapiens, UniProt Q07817); assay: blockers of BCLXL peptide binding – biochemical, fluorescence polarization, 1536-well, selectivity assay for MCL1 inhibitor project, dose response (AID 2218)
Sequence of Bcl-2-like protein 1 (Q07817 whole entry): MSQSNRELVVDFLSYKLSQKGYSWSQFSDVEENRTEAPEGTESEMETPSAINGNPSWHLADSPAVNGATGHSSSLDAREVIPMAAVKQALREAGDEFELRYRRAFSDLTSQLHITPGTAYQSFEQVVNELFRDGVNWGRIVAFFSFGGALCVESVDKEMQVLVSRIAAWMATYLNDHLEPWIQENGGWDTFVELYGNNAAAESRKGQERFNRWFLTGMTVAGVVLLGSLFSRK

[13] = target: T4, Apoptotic protease-activating factor 1 (Homo sapiens, UniProt O14727); assay: SAR analysis of small molecule Activators of Apaf-1 in a Fluorescent assay.; assay type: functional; details: read-out: EC50_Mean;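 further: caspase-3 cleavage of fluorogenic Rh110 DEVD substrate downstream of apoptosome activation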
T4 sequence (O14727 whole entry): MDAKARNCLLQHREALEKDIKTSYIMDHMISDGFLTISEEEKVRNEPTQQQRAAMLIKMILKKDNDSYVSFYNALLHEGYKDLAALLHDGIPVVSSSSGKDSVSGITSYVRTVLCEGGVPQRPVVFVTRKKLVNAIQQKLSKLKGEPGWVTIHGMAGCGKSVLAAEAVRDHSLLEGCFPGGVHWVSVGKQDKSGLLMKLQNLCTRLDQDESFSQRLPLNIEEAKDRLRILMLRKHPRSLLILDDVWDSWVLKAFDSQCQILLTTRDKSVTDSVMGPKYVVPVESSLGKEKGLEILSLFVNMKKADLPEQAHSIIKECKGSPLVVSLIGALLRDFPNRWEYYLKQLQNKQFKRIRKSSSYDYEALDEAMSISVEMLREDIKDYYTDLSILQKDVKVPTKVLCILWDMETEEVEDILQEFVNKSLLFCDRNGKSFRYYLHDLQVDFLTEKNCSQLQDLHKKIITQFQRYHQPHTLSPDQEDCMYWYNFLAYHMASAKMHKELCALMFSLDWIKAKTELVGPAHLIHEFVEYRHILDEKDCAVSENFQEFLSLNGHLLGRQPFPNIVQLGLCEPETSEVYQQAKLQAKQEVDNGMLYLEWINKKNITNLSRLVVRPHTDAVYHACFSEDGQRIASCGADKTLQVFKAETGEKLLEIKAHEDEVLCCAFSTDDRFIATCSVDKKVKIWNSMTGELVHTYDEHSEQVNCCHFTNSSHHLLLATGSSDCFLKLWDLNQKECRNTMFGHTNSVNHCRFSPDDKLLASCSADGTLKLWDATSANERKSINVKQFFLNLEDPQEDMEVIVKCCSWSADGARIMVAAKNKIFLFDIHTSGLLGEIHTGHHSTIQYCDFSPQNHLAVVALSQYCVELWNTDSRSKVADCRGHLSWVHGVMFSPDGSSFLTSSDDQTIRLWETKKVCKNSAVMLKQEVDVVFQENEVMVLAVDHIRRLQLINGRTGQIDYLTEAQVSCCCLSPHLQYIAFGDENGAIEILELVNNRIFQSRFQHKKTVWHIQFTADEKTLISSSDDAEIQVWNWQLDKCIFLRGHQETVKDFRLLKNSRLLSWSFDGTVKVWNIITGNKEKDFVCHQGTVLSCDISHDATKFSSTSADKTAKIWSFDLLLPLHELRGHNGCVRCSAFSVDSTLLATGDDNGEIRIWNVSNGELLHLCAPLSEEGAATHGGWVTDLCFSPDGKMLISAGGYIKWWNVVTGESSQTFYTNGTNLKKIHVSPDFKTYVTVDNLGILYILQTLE

[14] = target: Beta-adrenergic receptor kinase 1 (Homo sapiens, UniProt P25098); assay: blockers of aptamer binding to GRK2 – biochemical, flow cytometry beads, FAM-aptamer, powder set 1, dose response (AID 588720)
Sequence of Beta-adrenergic receptor kinase 1 (P25098 whole entry): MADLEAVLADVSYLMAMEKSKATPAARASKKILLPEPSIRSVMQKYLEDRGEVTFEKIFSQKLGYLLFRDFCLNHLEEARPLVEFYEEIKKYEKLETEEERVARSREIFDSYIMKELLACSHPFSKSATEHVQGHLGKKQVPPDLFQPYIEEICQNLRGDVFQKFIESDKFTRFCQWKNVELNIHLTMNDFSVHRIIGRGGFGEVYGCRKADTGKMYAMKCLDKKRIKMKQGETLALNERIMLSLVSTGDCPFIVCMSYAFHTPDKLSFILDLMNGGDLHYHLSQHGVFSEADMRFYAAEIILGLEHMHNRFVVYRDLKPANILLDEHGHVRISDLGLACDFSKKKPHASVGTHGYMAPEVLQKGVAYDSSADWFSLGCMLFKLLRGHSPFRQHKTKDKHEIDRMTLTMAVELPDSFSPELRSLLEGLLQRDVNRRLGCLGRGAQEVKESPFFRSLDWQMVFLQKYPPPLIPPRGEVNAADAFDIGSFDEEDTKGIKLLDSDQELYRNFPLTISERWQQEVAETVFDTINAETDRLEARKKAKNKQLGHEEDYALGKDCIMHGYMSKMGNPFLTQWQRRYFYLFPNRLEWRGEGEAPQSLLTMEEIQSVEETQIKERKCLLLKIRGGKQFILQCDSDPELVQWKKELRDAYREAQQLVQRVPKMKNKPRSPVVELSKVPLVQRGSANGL

[15] = target: T5, Small ubiquitin-related modifier 1 (Homo sapiens, UniProt P63165); assay: SUMO1 protein-protein binding blockers, potency – biochemical, FRET, dose response (AID 624383); assay type: functional; details: read-out: IC50_Mean
T5 sequence (P63165 whole entry): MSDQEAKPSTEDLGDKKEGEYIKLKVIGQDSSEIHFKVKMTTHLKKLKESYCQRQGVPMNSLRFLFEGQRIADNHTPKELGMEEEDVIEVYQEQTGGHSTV

[16] = target: Induced myeloid leukemia cell differentiation protein Mcl-1 (Homo sapiens, UniProt Q07820); assay: blockers of MCL1 binding to BIM peptide – biochemical, fluorescence polarization, BIM-BH3 peptide, 1536-well, dose response (AID 2217)
Sequence of Induced myeloid leukemia cell differentiation protein Mcl-1 (Q07820 whole entry, the tested form may be a part): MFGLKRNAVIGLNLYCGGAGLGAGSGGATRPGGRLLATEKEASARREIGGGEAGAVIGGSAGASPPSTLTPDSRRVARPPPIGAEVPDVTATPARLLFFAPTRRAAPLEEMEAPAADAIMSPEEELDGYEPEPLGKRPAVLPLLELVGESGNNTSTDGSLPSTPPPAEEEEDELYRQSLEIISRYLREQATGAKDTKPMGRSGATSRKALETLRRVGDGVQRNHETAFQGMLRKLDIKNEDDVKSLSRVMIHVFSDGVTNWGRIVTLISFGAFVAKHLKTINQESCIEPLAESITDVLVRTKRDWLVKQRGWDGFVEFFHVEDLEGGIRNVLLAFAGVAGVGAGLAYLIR

[17] = target: T6, Carboxy-terminal domain RNA polymerase II polypeptide A small phosphatase 1 (Homo sapiens, UniProt Q9GZU7); assay: CTDSP1 inhibitors, concentration-response, biochemical, absorbance readout, ultra-high-throughput screen actives (AID 540297); assay type: functional
T6 sequence (Q9GZU7 whole entry): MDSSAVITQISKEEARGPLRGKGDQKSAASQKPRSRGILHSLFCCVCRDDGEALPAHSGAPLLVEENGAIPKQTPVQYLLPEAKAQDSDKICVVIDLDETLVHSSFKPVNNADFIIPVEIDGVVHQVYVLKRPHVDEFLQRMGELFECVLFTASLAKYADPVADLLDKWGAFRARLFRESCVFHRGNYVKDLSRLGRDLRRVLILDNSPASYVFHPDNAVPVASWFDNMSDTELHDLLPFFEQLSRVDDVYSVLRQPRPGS

[18] = target: T5, Small ubiquitin-related modifier 1; assay: SUMO1 protein interaction blockers, potency – biochemical, fluorescence polarization, uHTS hits, dose response (AID 624382); assay type: functional; details: read-out: IC50_Mean
[19] = target: T7, Mannose-6-phosphate isomerase (Homo sapiens, UniProt P34949); assay: phosphomannose isomerase inhibition – biochemical, fluorescence intensity, confirmation (AID 1535)
T7 sequence (P34949 whole entry): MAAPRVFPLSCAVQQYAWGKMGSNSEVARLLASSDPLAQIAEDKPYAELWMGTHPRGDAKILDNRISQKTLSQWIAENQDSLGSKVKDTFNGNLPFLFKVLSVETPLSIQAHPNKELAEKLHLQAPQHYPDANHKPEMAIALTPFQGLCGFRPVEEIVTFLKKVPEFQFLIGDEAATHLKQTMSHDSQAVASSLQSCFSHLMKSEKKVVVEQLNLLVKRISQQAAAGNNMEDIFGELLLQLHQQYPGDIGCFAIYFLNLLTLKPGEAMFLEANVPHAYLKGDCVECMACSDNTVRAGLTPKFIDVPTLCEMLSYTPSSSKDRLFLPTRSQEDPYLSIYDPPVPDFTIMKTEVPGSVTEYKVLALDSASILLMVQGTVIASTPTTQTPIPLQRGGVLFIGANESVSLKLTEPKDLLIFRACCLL

[20] = target: Phosphomannomutase 2 (Homo sapiens, UniProt O15305); assay: Counter screen SAR assay for PMM2 inhibitors via a fluorescence intensity assay. [Related pubchem assays (depositor defined):AID1545, AID1574]
Sequence of Phosphomannomutase 2 (O15305 whole entry): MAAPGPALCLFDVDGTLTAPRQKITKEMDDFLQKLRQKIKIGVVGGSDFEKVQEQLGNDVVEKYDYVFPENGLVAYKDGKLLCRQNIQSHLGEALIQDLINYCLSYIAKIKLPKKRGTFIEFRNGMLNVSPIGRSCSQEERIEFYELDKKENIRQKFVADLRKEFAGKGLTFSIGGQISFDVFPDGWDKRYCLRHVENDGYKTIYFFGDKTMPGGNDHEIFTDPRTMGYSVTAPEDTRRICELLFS

[21] = target: UDP-galactopyranose mutase (Mycobacterium tuberculosis, UniProt P9WIQ1); assay: Inhibitors of Mycobacterium tuberculosis UDP-galactopyranose mutase (UGM) enzyme Measured in Biochemical System Using Plate Reader - 2105-02_Inhibitor_Dose_CherryPick_Activity. [Related pubchem assays (depositor defined):AID504439]
[22] = Luminescence Cell-Based Dose Retest to Confirm Inhibitors of Cancer Stem Cells. [Related pubchem assays (depositor defined):AID2717, AID2721]; assay type: functional; details: Homo sapiens
[23] = viability loss of HMLE_sh_eGFP cells – cell-based, luminescence, counter-screen for HMLE_sh_ECad selective toxicity project, dose response (AID 463074); assay type: functional, Homo sapiens;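 further: HMLE human mammary epithelial cells expressing control shRNA against eGFP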

SMILES: O=C(CCCN1C(=O)/C(=C/c2ccc3c(c2)OCO3)SC1=S)Nc1ccc(C(=O)O)cc1
- IC50 [1]: 38.9 µM (active)
- IC50 [2]: 4.07 µM (active)
- IC50 [3]: 47 µM (active)
- IC50 [4]: 12.1 µM (active)
- IC50 [5]: 40.7 µM (active)
- IC50 [6]: 91.4 µM (active)
- IC50 [7]: 43 µM (active)
- IC50 [8]: 0.563 µM (active)
- IC50 [9]: 1.99 µM (active)
- IC50 [10]: 20 µM (inactive)

SMILES: c1cc2c(cc1-c1csc(NNC3=NCCCCC3)n1)OCCO2
- AC50 [11]: 17 µM (active)

SMILES: COc1ccc(Cl)cc1NC(=O)CCS(=O)(=O)c1ccc(Br)cc1
- IC50 [12]: 32.2 µM (not active)
- IC50 [1]: > 100 µM (inactive)
- EC50 [13]: 17.4 µM (active)
- EC50 [14]: 0.779 µM (active)
- IC50 [5]: 10.9 µM (active)
- IC50 [7]: > 100 µM (inactive)
- IC50 [15]: 5.02 µM (active)
- IC50 [16]: 11.4 µM (not active)
- IC50 [17]: 4.16 µM (active)
- IC50 [18]: > 66.6 µM (inactive)

SMILES: COc1cc([N+](=O)[O-])ccc1/N=c1\ssnc1Cl
- IC50 [19]: 3.25 µM (active)
- IC50 [20]: > 100 µM (inactive)

SMILES: O=C(NCc1ccc(F)cc1)c1cccc2c1C(=O)c1ccc(N3CCC(Cc4ccccc4)CC3)cc1S2(=O)=O
- AC50 [21]: 5.84 µM (active)

SMILES: CN1CCN(/N=C/c2ccc(OCc3ccccc3)cc2)CC1
- AC50 [22]: 5.25 µM (active)
- AC50 [23]: 56 µM (active)
